These results are taken from US10265310B2, “6-membered cyclic amines or lactames substituted with urea and phenyl” (GRÜNENTHAL GMBH, priority 2016, dated 2019).

Assay [1] addresses FPR1 (Homo sapiens (Human), UniProt P21462). The experiment in a line: Agonistic activity (calcium FLIPR) in hFPR1-Gα15-CHO cells. Particulars: FLIPR Calcium 5 dye fluorescence, agonistic response. The class given is cell-based. The procedure: (§1) Cells (hFPR1-Gα15-CHO or hFPR2-Aq-CHO) are suspended in 10 mL of respective complete medium (F12(1×) HAM media; 10% HI-FBS; 0.1 mg/ml Hygromycin B and 0.2 mg/ml Zeocin [for hFPR1 only]; 0.4 mg/mL Geneticin and 0.25 mg/ml Zeocin [for hFPR2-Aq only]) and viability is checked using Trypan Blue exclusion. After washing, the cells are plated at 10,000 cells per well in 40 μL complete medium in a 384-well sterile clear bottom black plate and incubated in a 5% CO2 incubator at 37° C. for 18 hours. Plating media is removed from each well by decanting and gentle tapping before 30 μL of 0.5× Calcium 5 dye solution (0.5×FLIPR Calcium 5 dye (Molecular devices, R8186)); HBSS; 20 mM HEPES; 2.5 mM Probenecid; 0.025% Pluronic F-127; pH adjusted to 7.4) is added to each well and the plate is then incubated at 37° C. for 30 minutes. For the assay the plate is equilibrated at room temperature for 10 minutes before placing it in the FLIPR. Compounds are dissolved in DMSO and serially diluted over an 11 point half log (3.16 fold) dilution (2 mM to 20 nM). Compounds are then diluted 1:50 in assay buffer (HBSS; 20 mM HEPES; 2.5 mM Probenecid; 0.05% gelatin; 0.1% BSA; pH adjusted to 7.4) just before performing the assay. Compounds are finally added to the respective wells of the cell plate (final assay concentration 10 μM to 100 pM) using the FLIPR (e.g. FLIPR-Tetra, Molecular Devices) and fluorescence readings are captured for 5 minutes. The increase in fluorescence from the basal reading in the presence of the compounds is compared with that of the control wells (wells having no compound) to calculate the activity of the compounds. The EC50 values of the compounds can be determined using e.g. Graph pad Prism software.
(§2) Assay Method for Measuring Agonistic Activity of Compounds in hFPR1-Gα15-CHO and hFPR2-Aq-CHO Cell
(§3) Cryo-vial containing 6×10^6 cells (hFPR1-Gα15-CHO or hFPR2-Aq-CHO) was thawed in a 37° C. water bath. Cells were suspended in 10 ml of respective complete growth media (F12(1×) HAM media (Gibco; Cat#11765); 10% HI-FBS (Gibco; Cat#10082); 0.1 mg/ml Hygromycin B (Invitrogen; Cat#10687-010) [for hFPR1 only]; 0.2 mg/ml Zeocin (Invitrogen; Cat#R25001) [for hFPR1 only]; 0.4 mg/ml Geneticin (Gibco; Cat#10131) [for hFPR2-Aq only]; 0.25 mg/ml Zeocin (Invitrogen; Cat#R25001) [for hFPR2-Aq only]) in a 15 ml centrifuge tube. The cell viability was checked with the help of Trypan Blue dye. Upon washing the cells, those were plated in a 384-well sterile clear bottom black plate (Greiner Bioone Cat#781091) so that, each well contained 10,000 cells in 40 μl complete growth media. The plate was incubated in a 5% CO2 incubator at 37° C. for 18 hours.
(§4) Before assay on the next day, the cell plating media was removed from each well of the plate by decanting and gentle tapping. 30 μl, 0.11 of 0.5× Calcium 5 dye solution (0.5×FLIPR Calcium 5 dye (Molecular devices Cat# R8186); HBSS (Invitrogen; Cat#14025); 20 mM HEPES (Sigma; Cat#H0887); 2.5 mM Probenecid (Sigma; Cat#P8761); 0.025% Pluronic F-127 (Sigma; Cat#P2443); pH adjusted to 7.4) was added to each well. The plate was then incubated at 37° C. for 30 minutes. Following which the plate was equilibrated at room temperature for 10 minutes before placing it in a 384 well FLIPR for assay. Compounds were dissolved in DMSO and serially diluted following 11 point half log (3.16 fold) dilution with a starting concentration of 2 mM (Final assay concentration 10 μM). Aliquots of above mentioned each dilution was mixed with assay buffer (HBSS (Invitrogen; Cat#14025); 20 mM HEPES (Sigma; Cat#H0887); 2.5 mM Probenecid (Sigma; Cat#P8761); 0.05% gelatin (Sigma; Cat#G1890); 0.1% BSA (Sigma; Cat#A3059); pH adjusted to 7.4) just before performing the assay. Compounds were added to the respective wells of the assay ready cell plate with the help of the FLIPR (FLIPR Tetra) and fluorescence readings were captured for 5 minutes to measure any agonistic response of the compounds. […]

Assay [2] addresses FPR2 (Homo sapiens (Human), UniProt P25090). The experiment in a line: Agonistic activity (calcium FLIPR) in hFPR2-Aq-CHO cells. The class given is cell-based. The note with it: FLIPR Calcium 5 dye fluorescence, agonistic response. As for the experimental part:
as §1, §2, §3, §4

Sequence of FPR2 (P25090 whole entry): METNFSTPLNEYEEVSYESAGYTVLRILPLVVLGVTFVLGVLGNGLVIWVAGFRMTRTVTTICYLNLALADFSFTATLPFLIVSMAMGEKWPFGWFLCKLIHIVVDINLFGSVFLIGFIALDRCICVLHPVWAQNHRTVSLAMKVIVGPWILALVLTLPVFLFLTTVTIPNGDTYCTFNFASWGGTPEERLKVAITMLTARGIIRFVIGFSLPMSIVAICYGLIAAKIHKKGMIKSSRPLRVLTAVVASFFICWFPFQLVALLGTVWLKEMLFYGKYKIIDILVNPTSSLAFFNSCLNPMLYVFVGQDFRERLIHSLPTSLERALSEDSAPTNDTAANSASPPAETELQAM
Sequence of FPR1 (P21462 whole entry): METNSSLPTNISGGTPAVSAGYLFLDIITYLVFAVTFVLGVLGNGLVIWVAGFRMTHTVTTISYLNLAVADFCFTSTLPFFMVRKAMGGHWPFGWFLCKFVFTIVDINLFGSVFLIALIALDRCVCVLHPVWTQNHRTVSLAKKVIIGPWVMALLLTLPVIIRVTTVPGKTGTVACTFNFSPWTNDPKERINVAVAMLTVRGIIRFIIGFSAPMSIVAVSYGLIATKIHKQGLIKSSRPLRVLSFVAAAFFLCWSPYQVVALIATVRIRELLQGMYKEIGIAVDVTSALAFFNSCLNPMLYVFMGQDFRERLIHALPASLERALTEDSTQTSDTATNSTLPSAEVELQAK

The term EC50 denotes the concentration that produces a half-maximal response. Regarding `O=C(Nc1ccc(Cl)cc1)NC1CN(CC(F)F)C(=O)CC1c1ccc(F)cc1F` (single isomer, unassigned; ent1) [Example 65, trans-ent1-1-(4-Chlorophenyl)-3-[1-(2,2-difluoro-ethyl)-4-(2,4-difluoro-phenyl)-6-oxo-piperidin-3-yl]-urea], the EC50 in assay [1] and in assay [2] was 1 to 1000 nM throughout.
As to `COc1cc(F)c(C2CCN(C(=O)C3CC3)CC2NC(=O)Nc2ccc(Cl)cc2)c(F)c1` (single isomer, unassigned; ent2) [Example 40, trans-ent2-1-(4-chlorophenyl)-3-(1-(cyclopropanecarbonyl)-4-(2,6-difluoro-4-methoxyphenyl)piperidin-3-yl)urea], the EC50 in assay [1] and in assay [2] was 1 to 1000 nM in each case.
Consider `COc1ccc([C@@H]2CC(=O)NC[C@H]2NC(=O)Nc2ccc(Cl)cc2)cc1` (racemic) [Example 1, rac-trans-1-(4-chlorophenyl)-3-(4-(4-methoxyphenyl)-6-oxopiperidin-3-yl)urea], for which the figures for the EC50 in assay [1] and in assay [2] were 1 to 1000 nM and less than 1 nM, respectively.
The corresponding values for `COc1cc(F)c([C@@H]2CCN(C(C)=O)C[C@H]2NC(=O)Nc2ccc(Cl)cc2)c(F)c1` (racemic) [Example 5, rac-trans-1-(1-acetyl-4-(2,6-difluoro-4-methoxyphenyl)piperidin-3-yl)-3-(4-chlorophenyl)urea] are 1 to 1000 nM and less than 1 nM.
The corresponding values for `COCCN1CC(NC(=O)Nc2ccc(Cl)cc2)C(c2ccc(OC)cc2F)CC1=O` (single isomer, unassigned; ent1) [Example 59, trans-ent1-1-(4-Chlorophenyl)-3-[4-(2-fluoro-4-methoxy-phenyl)-1-(2-methoxy-ethyl)-6-oxo-piperidin-3-yl]-urea] are 1 to 1000 nM and less than 1 nM.
`COc1ccc(C2CCNCC2NC(=O)Nc2ccc(Cl)cc2)c(F)c1` (single isomer, unassigned; ent2) [Example 46, ent2-1-(4-chlorophenyl)-3-(4-(2-fluoro-4-methoxyphenyl)piperidin-3-yl)urea]: the EC50 in assay [1] and in assay [2] was 1 to 1000 nM throughout.
On to `COc1ccc([C@@H]2CCN(C(C)=O)C[C@H]2NC(=O)Nc2ccc(Cl)cc2)cc1` (racemic) [Example 2, rac-trans-1-(1-acetyl-4-(4-methoxyphenyl)piperidin-3-yl)-3-(4-chlorophenyl)urea], for which the EC50 in assay [1] and in assay [2] was less than 1 nM throughout.
Turning to `COc1cc(F)c([C@@H]2CC(=O)NC[C@H]2NC(=O)Nc2ccc(Cl)c(O)c2)c(F)c1` (racemic) [Example 57, rac-trans-1-(4-Chloro-3-hydroxy-phenyl)-3-[4-(2,6-difluoro-4-methoxy-phenyl)-6-oxo-piperidin-3-yl]-urea], the results for the EC50 in assay [1] and in assay [2] were 1 to 1000 nM and less than 1 nM, respectively.
Take `COc1ccc([C@@H]2CCNC[C@H]2NC(=O)Nc2ccc(Cl)cc2)cc1` (racemic) [Example 4, rac-trans-1-(4-chlorophenyl)-3-(4-(4-methoxyphenyl)piperidin-3-yl)urea]: the EC50 in assay [1] is 1 to 1000 nM; in assay [2], less than 1 nM.
The corresponding values for `O=C1CC(c2ccc(F)cc2F)C(NC(=O)Nc2ccc(Cl)cc2)CN1` (single isomer, unassigned; ent2) [Example 68, trans-ent2-1-(4-Chlorophenyl)-3-[4-(2,4-difluoro-phenyl)-6-oxo-piperidin-3-yl]-urea] are 1 to 1000 nM and 1 to 1000 nM.
The corresponding values for `COc1ccc([C@H]2CC(=O)N(C)C[C@@H]2NC(=O)Nc2ccc(Cl)cc2)cc1` (stereo in doubt) [Example 10, trans-ent1-(4-chlorophenyl)-3-(4-(4-methoxyphenyl)-1-methyl-6-oxopiperidin-3-yl)urea] are less than 1 nM and less than 1 nM.
The corresponding values for `COc1ccc(C2CCN(C(C)=O)C[C@H]2NC(=O)Nc2ccc(C)nc2)cc1` (mixture of isomers) [Example 28, rac-trans-1-(1-acetyl-4-(4-methoxyphenyl)piperidin-3-yl)-3-(6-methylpyridin-3-yl)urea] are 1 to 1000 nM and 1 to 1000 nM.
Turning to `COc1ccc([C@@H]2CCN(C(=O)CO)C[C@H]2NC(=O)Nc2ccc(Cl)cc2)cc1` (racemic) [Example 13, rac-trans-1-(4-chlorophenyl)-3-(1-(2-hydroxyacetyl)-4-(4-methoxyphenyl)piperidin-3-yl)urea], the EC50 in assay [1] and in assay [2] was less than 1 nM throughout.
Take `COc1ccc([C@@H]2CC(=O)N(C)C[C@H]2NC(=O)Nc2ccc(Cl)cc2)cc1` (stereo in doubt) [Example 7, rac-trans-1-(4-chlorophenyl)-3-(4-(4-methoxyphenyl)-1-methyl-6-oxopiperidin-3-yl)urea]: the EC50 in assay [1] and in assay [2] was less than 1 nM throughout.
As to `COC(=O)CN1C[C@@H](NC(=O)Nc2ccc(Cl)cc2)[C@H](c2ccc(OC)cc2)CC1=O` (racemic) [Example 21, rac-trans-methyl 2-(5-(3-(4-chlorophenyl)ureido)-4-(4-methoxyphenyl)-2-oxopiperidin-1-yl)acetate], the EC50 in assay [1] and in assay [2] was less than 1 nM throughout.
`COc1cc(F)c(C2CCNCC2NC(=O)Nc2ccc(Cl)cc2)c(F)c1` (single isomer, unassigned; ent2) [Example 37, trans-ent2-1-(4-chlorophenyl)-3-(4-(2,6-difluoro-4-methoxyphenyl)piperidin-3-yl)urea]: the EC50 in assay [1] and in assay [2] was 1 to 1000 nM in each case.
On to `COc1ccc([C@@H]2CCN(C(=O)C3CC3)C[C@H]2NC(=O)Nc2ccc(Cl)cc2)cc1` (racemic) [Example 12, rac-trans-1-(4-chlorophenyl)-3-(1-(cyclopropanecarbonyl)-4-(4-methoxyphenyl)piperidin-3-yl)urea], for which the EC50 in assay [1] and in assay [2] was less than 1 nM in each case.
For `COc1ccc(C2CC(=O)NCC2NC(=O)Nc2ccc(Cl)cc2)cc1` (single isomer, unassigned; ent2) [Example 77, trans-ent2-1-(4-chlorophenyl)-3-(4-(4-methoxyphenyl)-6-oxopiperidin-3-yl)urea], the concentration for a half-maximal effect (EC50) in assay [1] and in assay [2] was 1 to 1000 nM throughout.
`COc1cc(F)c([C@@H]2CC(=O)NC[C@H]2NC(=O)Nc2ncc(Cl)s2)c(F)c1` (racemic) [Example 56, rac-trans-1-(5-Chloro-thiazol-2-yl)-3-[4-(2,6-difluoro-4-methoxy-phenyl)-6-oxo-piperidin-3-yl]-urea]: the EC50 in assay [1] and in assay [2] was 1 to 1000 nM in each case.
For the compound `COc1ccc([C@@H]2CC(=O)NC[C@H]2NC(=O)Nc2ccc(Br)cc2)cc1` (racemic) [Example 3, rac-trans-1-(4-bromophenyl)-3-(4-(4-methoxyphenyl)-6-oxopiperidin-3-yl)urea], the EC50 in assay [1] was 1 to 1000 nM; in assay [2] it was less than 1 nM.
